Results published in patent publication US9204653B2, “5-fluoro pyrimidine derivatives” (DOW AGROSCIENCES LLC, priority 2008, dated 2015).
Where two headings read alike, the source gives them in different places.

Tested on: Mycosphaerella graminicola; Anamorph: Septoria tritici; Bayer Code SEPTTR
Assay: Leaf blotch of wheat, foliar fungicide treatment, one day protectant (1DP) or three day curative (3DC)
Type: in vivo, Septoria tritici on wheat plants (variety Yuma)
Details: Zymoseptoria tritici; for pest or weed control at 50 ppm / pest or weed control at 200 ppm: % disease control rating, one day protectant; for pest or weed control at 25 ppm / pest or weed control at 100 ppm: percent control rating; for pest or weed control at 100 ppm: read-out: SEPTTR 3DC 100 ppm
[1] = 24 h, one day protectant (1DP), 25 ppm (first 1DP column), read-out: SETTTR 1DP 25 ppm
[2] = 24 h, one day protectant (1DP), 25 ppm as printed (second 1DP column), read-out: SETTTR 1DP 25 ppm
[3] = 72 h, three day curative (3DC), 25 ppm, read-out: SEPTTR 3DC 25 ppm

| Structure (SMILES) | pest or weed control at 50 ppm (24 h) [%] | pest or weed control at 200 ppm (24 h) [%] | pest or weed control at 25 ppm [1] [%] | pest or weed control at 25 ppm [2] [%] | pest or weed control at 25 ppm [3] [%] | pest or weed control at 100 ppm (72 h, three day curative (3DC)) [%] |
| --- | --- | --- | --- | --- | --- | --- |
| Cc1ccc(CNc2nc(OCc3ccco3)ncc2F)cc1 [Compound 914] | 0 to 25 | 76 to 100 |  |  |  |  |
| Fc1cnc(OCC(F)(F)F)nc1NCc1ccc(Cl)nc1 [Compound 915] | 0 to 25 | 0 to 25 |  |  |  |  |
| Cc1ccc(COc2ncc(F)c(NCc3cnc(C)cn3)n2)cc1 [Compound 916] | 76 to 100 | 76 to 100 |  |  |  |  |
| C=CCOc1ncc(F)c(NCc2ccccc2F)n1 [Compound 917] | 0 to 25 | 51 to 75 |  |  |  |  |
| Fc1ccccc1CNc1nc(OCc2ccc(Cl)cc2)ncc1F [Compound 918] | 76 to 100 | 76 to 100 |  |  |  |  |
| Fc1cnc(OCc2ccc3c(c2)OCO3)nc1NC1CC1 [Compound 919] |  | 76 to 100 |  |  |  |  |
| Cc1ccc(CNc2nc(OCc3ccc(Cl)cc3)ncc2F)cc1 [Compound 920] | 76 to 100 | 76 to 100 |  |  |  |  |
| Fc1ccc(COc2ncc(F)c(NCc3ccccc3F)n2)c(F)c1 [Compound 921] | 76 to 100 | 76 to 100 |  |  |  |  |
| Cc1ccc(CNc2nc(OCc3cccs3)ncc2F)cc1 [Compound 922] | 51 to 75 | 26 to 50 |  |  |  |  |
| Fc1ccc(COc2ncc(F)c(NCc3cccs3)n2)c(F)c1 [Compound 923] |  | 76 to 100 |  |  |  |  |
| Fc1ccccc1CNc1nc(OCc2cccc(Cl)c2)ncc1F [Compound 924] | 76 to 100 | 76 to 100 |  |  |  |  |
| Fc1cnc(OCc2ccc(Cl)cc2)nc1N1CCOCC1 [Compound 925] | 0 to 25 | 0 to 25 |  |  |  |  |
| Cc1ccc(COc2ncc(F)c(NCCc3ccccc3)n2)cc1 [Compound 926] | 76 to 100 | 76 to 100 |  |  |  |  |
| Fc1ccc(COc2ncc(F)c(NC3CC3)n2)cc1 [Compound 927] | 51 to 75 | 76 to 100 |  |  |  |  |
| Fc1ccccc1CNc1nc(OCc2ccc3c(c2)OCO3)ncc1F [Compound 928] | 76 to 100 | 76 to 100 |  |  |  |  |
| COc1ccc(COc2ncc(F)c(NCc3ccc(Cl)cc3)n2)cc1 [Compound 929] | 51 to 75 | 76 to 100 |  |  |  |  |
| Cc1ccc(COc2ncc(F)c(NCc3ccccc3F)n2)cc1 [Compound 930] | 0 to 25 | 76 to 100 |  |  |  |  |
| COc1cccc(COc2ncc(F)c(NCc3cccs3)n2)c1 [Compound 931] |  | 76 to 100 |  |  |  |  |
| C=CCOc1ncc(F)c(N)n1 [Compound 932] | 76 to 100 | 76 to 100 |  |  |  |  |
| Cc1cnc(CNc2nc(OCCc3ccccc3)ncc2F)cn1 [Compound 934] | 0 to 25 | 26 to 50 |  |  |  |  |
| Fc1cnc(OCc2ccccn2)nc1NCc1ccc(Cl)cc1 [Compound 935] | 26 to 50 | 76 to 100 |  |  |  |  |
| Nc1nc(OCCc2ccccc2)ncc1F [Compound 936] | 76 to 100 | 76 to 100 |  |  |  |  |
| Fc1cnc(OCc2cccs2)nc1NCCc1ccccc1 [Compound 937] | 76 to 100 | 76 to 100 |  |  |  |  |
| Fc1ccc(COc2ncc(F)c(NC3CC3)n2)cc1F [Compound 938] |  | 76 to 100 |  |  |  |  |
| Cc1cc(COc2ncc(F)c(N)n2)no1 [Compound 939] | 0 to 25 | 76 to 100 |  |  |  |  |
| Fc1cnc(OCCc2ccccc2)nc1NC1CC1 [Compound 940] | 0 to 25 | 0 to 25 |  |  |  |  |
| Fc1cnc(OCc2ccc(Cl)cc2Cl)nc1NCc1ccc(Cl)cc1 [Compound 942] | 76 to 100 | 76 to 100 |  |  |  |  |

| Structure (SMILES) | pest or weed control at 50 ppm (24 h) [%] | pest or weed control at 200 ppm (24 h) [%] | pest or weed control at 25 ppm [1] [%] | pest or weed control at 25 ppm [2] [%] | pest or weed control at 25 ppm [3] [%] | pest or weed control at 100 ppm (72 h, three day curative (3DC)) [%] |
| --- | --- | --- | --- | --- | --- | --- |
| Fc1ccccc1CNc1nc(OCc2c(Cl)cccc2Cl)ncc1F [Compound 943] | 51 to 75 | 76 to 100 |  |  |  |  |
| Fc1cnc(OCc2ccco2)nc1N1CCOCC1 [Compound 944] | 0 to 25 | 0 to 25 |  |  |  |  |
| Fc1cnc(OCc2cccs2)nc1NCc1ccc(Cl)cc1 [Compound 945] | 76 to 100 | 76 to 100 |  |  |  |  |
| Fc1cnc(OCc2ccco2)nc1NCc1ccc(Cl)cc1 [Compound 946] | 51 to 75 | 76 to 100 |  |  |  |  |
| CC(=O)Nc1nc(OCc2ccc(C(F)(F)F)cc2)ncc1F [Compound 947] | 76 to 100 | 76 to 100 |  |  |  |  |
| Fc1ccccc1CNc1nc(OCCc2ccccc2)ncc1F [Compound 948] | 0 to 25 | 0 to 25 |  |  |  |  |
| Cc1ccc(COc2ncc(F)c(NCc3cccs3)n2)cc1 [Compound 949] | 51 to 75 | 76 to 100 |  |  |  |  |
| Fc1cnc(OCC(F)(F)F)nc1NCc1ccc2c(c1)OCO2 [Compound 950] | 0 to 25 | 0 to 25 |  |  |  |  |
| Cc1ccc(CNc2nc(OCc3ccc(F)cc3)ncc2F)cc1 [Compound 951] | 51 to 75 | 76 to 100 |  |  |  |  |
| Fc1ccccc1CNc1nc(OCc2ccc(OC(F)(F)F)cc2)ncc1F [Compound 953] | 26 to 50 | 76 to 100 |  |  |  |  |
| COc1ccccc1NC(=O)Nc1nc(O)ncc1F [Compound 954, 1-(5-Fluoro-2-hydroxypyrimidin-4-yl)-3-(2-methoxyphenyl)urea] |  |  | 26 to 50 | 26 to 50 | 26 to 50 | 51 to 75 |
| Cc1ccc(COc2ncc(F)c(NS(=O)(=O)c3ccc(C)cc3)n2)cc1 [Compound 955, N-(5-Fluoro-2-(4-methylbenzyloxy)pyrimidin-4-yl)-4-methylbenzenesulfonamide] |  |  | 0 to 25 | 0 to 25 | 0 to 25 | 0 to 25 |
| O=S(=O)(Nc1nc(O)ncc1F)c1ccccc1 [Compound 956, N-(5-Fluoro-2-hydroxypyrimidin-4-yl)benzenesulfonamide] |  |  | 0 to 25 | 0 to 25 | 0 to 25 | 0 to 25 |
| CN(Cc1ccccc1)c1nc(O)ncc1F [Compound 957, 4-(Benzylmethylamino)-5-fluoropyrimidin-2-ol] |  |  | 0 to 25 | 0 to 25 | 26 to 50 | 26 to 50 |
| Fc1cnc(OCc2ccccc2)nc1/N=N/c1cccc(C(F)(F)F)c1 [Compound 958] |  |  | 0 to 25 | 0 to 25 | 26 to 50 | 26 to 50 |
| C=CCOc1ncc(F)c(NNC(=O)c2cccc(C)c2)n1 [Compound 959, N′-(2-(allyloxy)-5-fluoropyrimidin-4-yl)-3-methylbenzohydrazide] |  |  | 0 to 25 | 0 to 25 | 0 to 25 | 0 to 25 |
| COc1ccc(/C=N/Nc2nc(O)ncc2F)cc1 [Compound 960, (E)-5-Fluoro-4-(2-(4-methoxybenzylidene)hydrazinyl)pyrimidin-2(1H)-one] |  |  | 0 to 25 | 0 to 25 | 0 to 25 | 0 to 25 |
| O=CNc1nc(OCc2ccccc2)ncc1F [Compound 961, N-(2-(Benzyloxy)-5-fluoropyrimidin-4-yl)formamide] |  |  | 76 to 100 | 76 to 100 | 76 to 100 | 76 to 100 |
| Nc1nc(OCOC(=O)C2CCCC2)ncc1F [Compound 962, (4-amino-5-fluoropyrimidin-2-yloxy)methyl cyclopentanecarboxylate] |  |  | 76 to 100 | 76 to 100 | 76 to 100 | 76 to 100 |
| N#CNc1nc(OCc2ccccc2)ncc1F [Compound 963, 2-Benzyloxy-5-fluoro-pyrimidin-4-yl-cyanamide] |  |  | 0 to 25 | 0 to 25 | 26 to 50 | 0 to 25 |
| N=C(NO)Nc1nc(OCc2ccccc2)ncc1F [Compound 964, 1-[2-(Benzyloxy)-5-fluoropyrimidin-4-yl]-3-hydroxyguanidine] |  |  | 0 to 25 | 0 to 25 | 0 to 25 | 26 to 50 |
| O=C(Nc1nc(O)ncc1F)c1ccc(Cl)nc1 [Compound 965] |  |  | 26 to 50 | 76 to 100 | 26 to 50 | 26 to 50 |
| O=C(Nc1ccccc1Cl)Nc1nc(O)ncc1F [Compound 966] |  |  | 26 to 50 | 51 to 75 | 51 to 75 | 51 to 75 |
| O=C(Nc1ccccc1)Nc1nc(O)ncc1F [Compound 967] |  |  | 26 to 50 | 26 to 50 | 51 to 75 | 51 to 75 |
| Cc1ccc(NC(=O)Nc2nc(O)ncc2F)cc1 [Compound 968] |  |  | 51 to 75 | 51 to 75 | 51 to 75 | 51 to 75 |
| O=C(NCc1ccccc1)Nc1nc(O)ncc1F [Compound 969] |  |  | 26 to 50 | 26 to 50 | 26 to 50 | 51 to 75 |
| O=C(NCc1ccccc1F)Nc1nc(O)ncc1F [Compound 970] |  |  | 26 to 50 | 51 to 75 | 26 to 50 | 26 to 50 |
